From PubChem BioAssay AID1963969 (Molecular Pharmacology Branch, DTP, NCI, 2024)
“And” between values parts separate entries of the source, which are not always exact repeats. Equal entries are not always repeated.

System: 817829-284-R-J1-PDC multi-cell spheroid viability
Experiment: Anticancer human tumor 817829-284-R-J1-PDC patient-derived colon adenocarcinoma cell line growth inhibition [PI3K]
Details: for viability, T/C: stronger effect = lower value
Summary of the method: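 Targeted small molecules plus PI3K inhibitors, half-log dose series from Cmax (default top 10 microM), were applied to heterotypic spheroids of cancer cells with HUVEC and MSCs. Viability indicated growth inhibition.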
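Note: spheroids exposed to agents for seven days before readout.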
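Throughout, for viability, T/C: percent of vehicle DMSO control viability which is 100%.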

For `Cn1ncc(Cl)c1-c1cc(C(=O)NC(CN)Cc2cccc(F)c2)sc1Cl` (centres undefined), the viability, T/C (compound 0.0316 µM) was 52.7% and 85.2%, the viability, T/C (compound 0.1 µM) was 47.4% and 54.1% and the viability, T/C (compound 0.316 µM) was 31.6% and 27.1%. For the same compound, the viability, T/C (compound 1 µM) was 18.3% and 22.5%, the viability, T/C (compound 3.16 µM) was 16.1% and 20.2% and the viability, T/C (compound 10 µM) was 76.6% and 13.4%. For the same compound, the IC50 (curve of compound) was < 31.6 nM and 118 nM.
For `Cn1cnc2c(F)c(Nc3ccc(Br)cc3Cl)c(C(=O)NOCCO)cc21` + COc1c(OCCCN2CCOCC2)ccc2c3n(c(=NC(=O)c4cnc(N)nc4)nc12)CCN3, the IC50 (curve of first compound, second compound 0.00316 µM) was 487 nM, the IC50 (curve of first compound, second compound 0.01 µM) was 82.7 nM and the IC50 (curve of first compound, second compound 0.0316 µM) was 80.1 nM. For the same compound, the IC50 (curve of first compound, second compound 0.1 µM) was less than 9.49 nM, the IC50 (curve of first compound, second compound 0.316 µM) was less than 9.49 nM and the IC50 (curve of first compound, second compound 1 µM) was less than 9.49 nM. The viability, T/C (second compound 0.00316 µM, first compound 0.00949 µM) was 63.7%, the viability, T/C (second compound 0.00316 µM, first compound 0.03 µM) was 43.5% and the viability, T/C (second compound 0.00316 µM, first compound 0.0949 µM) was 70.4%. For the same compound, the viability, T/C (second compound 0.00316 µM, first compound 0.3 µM) was 69%, the viability, T/C (second compound 0.00316 µM, first compound 0.949 µM) was 34% and the viability, T/C (second compound 0.00316 µM, first compound 3 µM) was 32.1%. The viability, T/C (second compound 0.01 µM, first compound 0.00949 µM) was 62.3%, the viability, T/C (second compound 0.01 µM, first compound 0.03 µM) was 72.2% and the viability, T/C (second compound 0.01 µM, first compound 0.0949 µM) was 35.5%. For the same compound, the viability, T/C (second compound 0.01 µM, first compound 0.3 µM) was 43.7%, the viability, T/C (second compound 0.01 µM, first compound 0.949 µM) was 32.7% and the viability, T/C (second compound 0.01 µM, first compound 3 µM) was 22.9%. It also gave a viability, T/C (second compound 0.0316 µM, first compound 0.00949 µM) of 66.5%, a viability, T/C (second compound 0.0316 µM, first compound 0.03 µM) of 50.9% and a viability, T/C (second compound 0.0316 µM, first compound 0.0949 µM) of 56%. For the same compound, the viability, T/C (second compound 0.0316 µM, first compound 0.3 µM) was 39.5%, the viability, T/C (second compound 0.0316 µM, first compound 0.949 µM) was 25.8% and the viability, T/C (second compound 0.0316 µM, first compound 3 µM) was 18%. The viability, T/C (second compound 0.1 µM, first compound 0.00949 µM) was 48%, the viability, T/C (second compound 0.1 µM, first compound 0.03 µM) was 27.9% and the viability, T/C (second compound 0.1 µM, first compound 0.0949 µM) was 39.6%. It also gave a viability, T/C (second compound 0.1 µM, first compound 0.3 µM) of 29.3%, a viability, T/C (second compound 0.1 µM, first compound 0.949 µM) of 24.4% and a viability, T/C (second compound 0.1 µM, first compound 3 µM) of 29.3%. It also gave a viability, T/C (second compound 0.316 µM, first compound 0.00949 µM) of 19.6%, a viability, T/C (second compound 0.316 µM, first compound 0.03 µM) of 14.8% and a viability, T/C (second compound 0.316 µM, first compound 0.0949 µM) of 16.3%. For the same compound, the viability, T/C (second compound 0.316 µM, first compound 0.3 µM) was 11.3%, the viability, T/C (second compound 0.316 µM, first compound 0.949 µM) was 11.7% and the viability, T/C (second compound 0.316 µM, first compound 3 µM) was 6.47%. It also gave a viability, T/C (second compound 1 µM, first compound 0.00949 µM) of 15.4%, a viability, T/C (second compound 1 µM, first compound 0.03 µM) of 7.31% and a viability, T/C (second compound 1 µM, first compound 0.0949 µM) of 5.89%. For the same compound, the viability, T/C (second compound 1 µM, first compound 0.3 µM) was 4.21%, the viability, T/C (second compound 1 µM, first compound 0.949 µM) was 4.29% and the viability, T/C (second compound 1 µM, first compound 3 µM) was 1.75%.
